In patent US10048243B2, “Automatic water quality surveillance apparatus” (priority 2016, dated 2018):

Columns and labels:
[1] = test system: cyprinodonts; parameters: species or system Oryzias latipes; settings: in vivo
From the text: Referring to FIG. 10, it is clear that the cyprinodonts 4e take unique action based on the kind of toxic substances.
In order to solve the problems, the present inventor has further devised a method including: putting a plurality (for example, 20) of cyprinodonts 4e into the water tank for fish 4d; photographing the cyprinodonts 4e by means of the CCD video camera 1 in a direction of bird's-eye to output data; and analyzing the data with the image processing device 1b.
In order to solve the problem of photographing one cyprinodont from the side wall, the inventor has performed: changing the side photographing system shown in FIG. 10 to the bird's-eye photographing system shown in FIG. 11; using the more (about 20) cyprinodonts; and developing new algorithm. In this way, the present inventor has solved the problem in recent years.
Furthermore, the present inventor has developed algorithm of issuing an alarm in this state.
When about 2 [ppm] concentration of potassium cyanide is contained in the raw water, the cyprinodonts 4e swim weakly toward a water flow to be carried away, thereby being latched by the capture net 4f.

[2] = test system: fish reared within the water tank for fish; format: in vivo; settings: for effect on the fish: in vivo; for damage or injury of the fish caused by the pollution: small amount
From the text: This is because the oil keeps floating on a water surface thereof.
In this context, the present inventor has confirmed according to tests that the conventional automatic water quality surveillance apparatus with fish cannot sense the oil and/or the mold odor substances based on abnormal behavior of the fish.

SMILES	organ system of cyprinodonts damaged [1]	unique action taken by cyprinodonts [1]	effect on the fish [2]	damage or injury of the fish caused by the pollution [2]
COP(=S)(OC)Oc1ccc([N+](=O)[O-])c(C)c1 [Fenitrothion]	damages nervous systems	madly-rushing action		
CC1(C)[C@@H]2CC[C@@]1(C)[C@](C)(O)C2 [2-MIB, 2-methylisoborneol]			hardly affect the fish	neither to be damaged nor to be injured
CC1CCCC2(C)CCCCC12O (stereo not drawn) [geosmin]			hardly affect the fish	neither to be damaged nor to be injured
